Experimental data: patent publication US11744802B2, “Therapeutic compositions for treatment of human immunodeficiency virus” (Gilead Sciences, Inc., priority 2015, dated 2023)
Where two headings read alike, the source gives them in different places.

Legend:
[1] = Pharmacokinetic study cohort 2 (bilayer tablet F7 vs F1 + F3; food effect on F7); conditions: for AUCinf, Mean (% CV) / Cmax, Mean (% CV) / AUClast, Mean (% CV): plasma;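 for all read-outs here: plasma PK parameters per analyte summarized descriptively, with GLSM ratios derived from mixed-effects ANOVA on ln-transformed values (treatment as fixed effect, subject as random effect)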
Procedure: (§1) The pharmacokinetic study of Example 3 was continued with a second treatment group (cohort) to assess the pharmacokinetic profile of formulation F7 of Example 7 compared with that of formulation F2.
(§2) The following plasma pharmacokinetic parameters were calculated: AUClast, AUCinf, % AUCexp, Cmax, Clast, Tmax, Tlast, CL/F, Vz/F, and t1/2.
(§3) Pharmacokinetics: Individual subject concentration data and individual subject PK parameters for each analyte (compound of Formula 1, FTC, and TAF) were listed and summarized using descriptive statistics by treatment group (cohort) and treatment. Summary statistics were determined for both individual subject concentration data by time point, cohort, and treatment and individual subject PK parameters by cohort and treatment. Also, the geometric mean, 95% confidence interval (CI), and the mean, and standard deviation (SD) of the natural log-transformed values were presented for individual subject PK parameter data. The sample size for each time point was based on the number of subjects with nonmissing concentration data at that time point. The number of subjects with concentration below the level of quantitation (BLQ) was presented for each time point.
(§4) Statistical comparisons of the natural log-transformed PK parameters for each analyte and treatment comparison of interest were performed. The statistical modelling was based on the PK Analysis set for the analyte under evaluation. For each analyte, all subjects with available data for the PK parameter under evaluation were included in the modelling. The statistical comparisons using Treatment A as a reference only used data from this cohort, not from the earlier cohort of Example 3 (i.e., Treatment A was not pooled).
(§5) For each analyte and each PK parameter, a parametric (normal theory) mixed-effects ANOVA model was fitted to the natural log-transformed values of the PK parameter under evaluation. The statistical model included treatment as a fixed effect and subject as a random effect.

[2] = Relative bioavailability and food-effect crossover study, cohort 1 (bilayer tablet F2 vs F1 co-administered with F3); conditions: for AUC(0-inf): AUCinf; for AUC(0-t): AUClast
Procedure: Studies were carried out to assess the pharmacokinetic profiles of the formulations F1, F2, and F3 of Examples 1, 2, and 2A. A randomized, open-label, multiple-period, fixed-sequence, crossover study was performed to evaluate the relative bioavailability of bilayer tablet formulation F2 compared with that of single agent tablet formulation F1 co-administered simultaneously with a fixed-dose combination tablet containing emtricitabine and tenofovir alafenamide (tablet formulation F3). The bioavailability was evaluated in healthy subjects.
The following plasma pharmacokinetic parameters were calculated: Cmax, AUClast, and AUCinf.
Pharmacokinetics: Plasma concentrations and PK parameters were listed and summarized by analyte and treatment group using descriptive statistics. In addition, a parametric analysis of variance using a mixed-effects model appropriate for a crossover design was fitted to the natural logarithmic transformation of the PK parameters (AUCinf, AUClast, and Cmax).

[3] = Food effect on single dose Compound of Formula I 100 mg single agent tablet (8 subjects); format: in vivo, human; conditions: for AUC(0-inf) / AUC(0-t) / Cmax: human, plasma, oral, 100 mg, mean, Compound of Formula I 100 mg single agent tablet, n = 8
Procedure: In this study, a single dose of the compound of Formula I was administered in two periods with fixed sequence under fasted and fed conditions respectively. A washout of at least five half-lives was required between fasted and fed sequences.
Subjects continued to fast until 4 hours post dose or until collection of the 4-hour postdose blood sample.
The 90% CI for the geometric least square mean (GLSM) ratios for fast versus fed was constructed. The statistical comparison of the pharmacokinetic parameters of the compound of Formula 1 following single dose administration of this tablet formulation in fed and fasted states is presented in the table below.

[4] = Physicochemical properties of the active ingredients (pKa, pH-dependent solubility and stability, BCS class); conditions: for pH of maximum solubility: pH-dependent solubility
[5] = in vivo
Procedure: as §1, §2, §3, §4, §5

[6] = F7 (50/200/25 mg), high fat meal, N = 27
[7] = F7 (50/200/25 mg), moderate fat meal, N = 27
[8] = Formulation F1 + F3 (75 mg + F/TAF 200/25 mg), fasted, Reference, N = 28, cohort 2
[9] = human, plasma, oral, mean, F2 Compound of Formula I/F/TAF (75/200/25 mg), high-fat meal, Test, N = 28
[10] = human, plasma, oral, plasma, mean, F1 Compound of Formula I (75 mg) + F3 F/TAF (200/25 mg) co-administered, fasted, Reference, N = 28, cohort 1
[11] = 100 mg single dose, high-calorie/high-fat breakfast
[12] = Test F7 (50/200/25 mg) / Reference F1 + F3, fasted
[13] = F2 (75/200/25 mg) high-fat meal / fasted
[14] = Test F2 (75/200/25 mg) / Reference F1 + F3, fasted
[15] = human, in vivo, plasma, mean, F1 Compound of Formula I (75 mg) + F3 F/TAF (200/25 mg) co-administered, fasted, Reference, N = 28, cohort 1
[16] = human, in vivo, plasma, mean, F2 Compound of Formula I/F/TAF (75/200/25 mg), high-fat meal, Test, N = 28
[17] = human, in vivo, plasma, mean, bilayer tablet F2 Compound of Formula I/F/TAF (75/200/25 mg), single dose, fasted, N = 28

O=C(NCc1c(F)cc(F)cc1F)c1cn2c(c(O)c1=O)C(=O)N1[C@H]3CC[C@H](C3)O[C@@H]1C2 [Compound of Formula I, (2R,5S,13aR)-8-hydroxy-7,9-dioxo-N-(2,4,6-trifluorobenzyl)-2,3,4,5,7,9,13,13a-octahydro-2,5-methanopyrido[1′,2′:4,5]pyrazino[2,1-b][1,3]oxazepine-10-carboxamide]
exposure in Formulation F7 compared with Formulation F2 ([1]; 50 mg vs 75 mg dose): proportionally lower | AUCinf, Mean (% CV) [1, 6]: 140,032.4 (21.8) hr · ng/mL | Cmax, Mean (% CV) [1, 6]: 5936.3 (18.3) ng/mL | AUCinf, Mean (% CV) [1, 7]: 140,197.7 (23.6) hr · ng/mL | Cmax, Mean (% CV) [1, 7]: 6279.6 (18.3) ng/mL | AUCinf, Mean (% CV) [1, 8]: 146,931.6 (31.1) hr · ng/mL | Cmax, Mean (% CV) [1, 8]: 6791.1 (26.4) ng/mL | AUCinf higher with high-fat meal than fasted ([1]; tablet formulation F7): 24% | AUCinf higher with moderate fat meal than fasted ([1]; tablet formulation F7): 24% | Cmax higher with high-fat meal than fasted ([1]; tablet formulation F7): 13% | Cmax higher with moderate fat meal than fasted ([1]; tablet formulation F7): 20% | AUCinf higher after F2 than after F1 with F3 ([2]; fasted): 27% | Cmax higher after F2 than after F1 with F3 ([2]; fasted): 31% | total exposure higher in F2 than in F1 co-dosed with F3 ([2]; fasted): approximately 30% | AUC(0-inf) [2, 9]: 226000 ng·h/mL | AUC(0-inf) [2, 10]: 123000 ng·h/mL | AUC(0-t) [2, 9]: 217000 ng·h/mL | AUC(0-t) ([2]; human, plasma, oral, mean, bilayer tablet F2 Compound of Formula I/F/TAF (75/200/25 mg), single dose, fasted, N = 28): 152000 ng·h/mL | AUC(0-t) [2, 10]: 120000 ng·h/mL | Cmax [2, 10]: 5590 ng/mL | AUCinf ([2]; plasma, mean, bilayer tablet F2 Compound of Formula I/F/TAF (75/200/25 mg), single dose, fasted, N = 28): 156,637.5 h · ng/mL | AUCinf higher with high-fat meal than fasted ([2]; tablet formulation F2): 46% | Cmax higher with high-fat meal than fasted ([2]; tablet formulation F2): 27% | changes in clearance and t1/2 following administration with food ([3]; 100 mg single dose): no apparent changes | increase of GLSM value of AUCinf with food [3, 11]: 84% | increase of GLSM value of Cmax with food [3, 11]: 101% | AUC(0-inf) ([3]; Fasted): 118 µg·h/mL | AUC(0-t) ([3]; Fasted): 116 µg·h/mL | Cmax ([3]; Fasted): 5880 ng/mL | AUC(0-inf) ([3]; Fed (high-fat breakfast)): 214 µg·h/mL | AUC(0-t) ([3]; Fed (high-fat breakfast)): 209 µg·h/mL | Cmax ([3]; Fed (high-fat breakfast)): 11300 ng/mL | BCS class [4]: BCS Class 2 | pH of maximum chemical stability [4]: 4 | pKa [4]: 8.6 | solubility (BCS classification) [4]: low solubility | pH of maximum solubility [4]: 10.5

Nc1nc(=O)n([C@@H]2CS[C@H](CO)O2)cc1F [Emtricitabine, 4-amino-5-fluoro-1-[(2R,5S)-2-(hydroxymethyl)-1,3-oxathiolan-5-yl]-1,2-dihydropyrimidin-2-one]
exposure of Formulation F7 compared with coadministered reference tablets [5]: similar | geometric mean ratio of AUCinf (food effect) ([2]; human, in vivo): 1.00 | geometric mean ratio of Cmax (food effect) ([2]; human, in vivo): 0.83 | exposure following F2 compared with F1 with the F/TAF FDC (F3) ([2]; in vivo): similar | BCS class [4]: BCS Class 1 | pKa [4]: 2.65 | solubility (BCS classification) [4]: high solubility

CC(C)OC(=O)[C@H](C)N[P@](=O)(CO[C@H](C)Cn1cnc2c(N)ncnc21)Oc1ccccc1 [Tenofovir alafenamide]
% GLSM Ratio (90% CI) of AUCinf ([1]; F7 high fat meal / fasted): 166.55 (146.54, 189.29) % | % GLSM Ratio (90% CI) of AUClast ([1]; F7 high fat meal / fasted): 162.62 (143.10, 184.80) % | % GLSM Ratio (90% CI) of Cmax ([1]; F7 high fat meal / fasted): 91.71 (73.46, 114.49) % | % GLSM Ratio (90% CI) of AUCinf ([1]; F7 moderate fat meal / fasted): 148.23 (130.42, 168.47) % | % GLSM Ratio (90% CI) of AUClast ([1]; F7 moderate fat meal / fasted): 148.20 (130.41, 168.41) % | % GLSM Ratio (90% CI) of Cmax ([1]; F7 moderate fat meal / fasted): 99.04 (79.33, 123.65) % | % GLSM Ratio (90% CI) of AUCinf [1, 12]: 85.48 (75.33, 97.00) % | % GLSM Ratio (90% CI) of AUClast [1, 12]: 85.37 (75.24, 96.85) % | % GLSM Ratio (90% CI) of Cmax [1, 12]: 84.17 (67.59, 104.81) % | Cmax lower for Formulation F7 than for the coadministered reference tablets ([1]; fasted): approximately 16% | exposure of Formulation F7 compared with coadministered reference tablets ([1]; fasted): similar | AUCinf, Mean (% CV) [1, 6]: 318.4 (32.8) hr · ng/mL | AUClast, Mean (% CV) [1, 6]: 310.3 (34.9) hr · ng/mL | Cmax, Mean (% CV) [1, 6]: 236.6 (65.1) ng/mL | AUCinf, Mean (% CV) [1, 7]: 293.1 (40.9) hr · ng/mL | AUClast, Mean (% CV) [1, 7]: 290.6 (41.3) hr · ng/mL | Cmax, Mean (% CV) [1, 7]: 251.1 (66.7) ng/mL | AUCinf, Mean (% CV) [1, 8]: 238.3 (45.0) hr · ng/mL | AUClast, Mean (% CV) [1, 8]: 236.7 (45.3) hr · ng/mL | Cmax, Mean (% CV) [1, 8]: 291.9 (55.4) ng/mL | % GLSM Ratio of AUCinf [2, 13]: 158.20% | % GLSM Ratio of AUClast [2, 13]: 156.81% | % GLSM Ratio of Cmax [2, 13]: 83.22% | % GLSM Ratio of AUCinf [2, 14]: 91.56% | % GLSM Ratio of AUClast [2, 14]: 91.62% | % GLSM Ratio of Cmax [2, 14]: 95.47% | geometric mean ratio of AUCinf (food effect) ([2]; bilayer tablet formulation F2): 1.58 | geometric mean ratio of Cmax (food effect) ([2]; bilayer tablet formulation F2): 0.83 | exposure following F2 compared with F1 with the F/TAF FDC (F3) ([2]; fasted): similar | AUC(0-inf) [2, 15]: 225 ng·h/mL | AUC(0-inf) [2, 16]: 320 ng·h/mL | AUC(0-inf) [2, 17]: 207 ng·h/mL | AUC(0-t) [2, 15]: 224 ng·h/mL | AUC(0-t) [2, 16]: 315 ng·h/mL | AUC(0-t) [2, 17]: 206 ng·h/mL | Cmax [2, 15]: 277 ng/mL | Cmax [2, 16]: 212 ng/mL | Cmax [2, 17]: 253 ng/mL | geometric mean ratio of Cmax (food effect) ([2]; tablet formulation F1 (codosed with F3)): 0.85 | geometric mean ratio of AUCinf (food effect) ([2]; tablet formulation F1 codosed with tablet formulation F3): 1.75 | BCS class [4]: BCS Class 3 | pKa [4]: 3.9 | solubility (BCS classification) [4]: high equilibrium solubility | permeability (BCS classification) ([4]; not told): lower apparent permeability | pH of maximum solubility [4]: ~3
